Experimental data published in patent publication US5494921A, “Fibrinogen receptor antagonists” (Merck & Co., Inc., priority 1994, dated 1996).

What was measured:
[1] = system: gel-filtered human platelets; assay: Inhibition of ADP-stimulated platelet aggregation (IC50 Plaggin); assay type: cell-based; details: ADP-initiated (10 mM ADP) aggregation of gel-filtered human platelets, fibrinogen 100 ug/ml, Ca2+ 1 mM, 37° C.
Description: Platelet aggregation is measured at 37° C. in a Chronolog aggregometer. The reaction mixture contains gel-filtered human platelets (2×10^8 per ml), fibrinogen (100 micrograms per ml (ug/ml)), Ca^2 +(1 mM), and the compound to be tested. The aggregation is initiated by adding […] ADP 1 minute after the other components are added. The reaction is then allowed to proceed for at least 2 minutes. The extent of inhibition of aggregation is expressed as the percentage of the rate of aggregation observed in the absence of inhibitor. The IC50 is the dose of a particular compound inhibiting aggregation by 50% relative to a control lacking the compound.
In addition to the following preparative procedures, several examples of in vitro bioactivity of compounds within the scope of the present invention are indicated. To illustrate, one test which is used to evaluate fibrinogen receptor antagonist activity is based on evaluation of inhibition of ADP-stimulated platelets. Aggregation requires that fibrinogen bind to and occupy the platelet fibrinogen receptor site. Inhibitors of fibrinogen binding inhibit aggregation. In the ADP-stimulated platelet aggregation assay used to determine inhibition associated with the compounds claimed in the instant invention, human platelets are isolated from fresh blood, collected into acid citrate/dextrose o by differential centrifugation followed by gel filtration on Sepharose 2B in divalent ion-free Tyrode's buffer (pH 7.4) containing 2% bovine serum albumin.

gp IIb/IIIa complex = details: cited from earlier work

Compound | IC50 [1] | affinity for the gp IIb/IIIa complex (gp IIb/IIIa complex)
CCCCS(=O)(=O)N[C@@H](CNC(=O)[C@H]1C[C@@H]1C(=O)NCCC1CCNCC1)C(=O)O | 580 nM | –
Echistatin | – | high affinity
C[C@H](CC(=O)O)NC(=O)[C@@H]1C[C@H]1C(=O)NCCC1CCNCC1 | 17000 nM | –
CCCCS(=O)(=O)N[C@@H](CCNC(=O)[C@@H]1C[C@H]1C(=O)NCCC1CCNCC1)C(=O)O | 3500 nM | –
CCCCS(=O)(=O)N[C@@H](CCNC(=O)[C@H]1C[C@@H]1C(=O)NCCC1CCNCC1)C(=O)O | 17000 nM | –

More lines, in order of falling IC50 [1], values ahead:

IC50 [1] | Compound | affinity for the gp IIb/IIIa complex (gp IIb/IIIa complex)
210 nM | CCCCS(=O)(=O)N[C@@H](CNC(=O)C1CC1C(=O)NCCC1CCNCC1)C(=O)O (some centres unmarked) | –
140 nM | CCCCS(=O)(=O)N[C@@H](CNC(=O)C1CC1CC(=O)NCCC1CCNCC1)C(=O)O (some centres unmarked) | –
77 nM | CCCCS(=O)(=O)N[C@@H](CNC(=O)[C@@H]1C[C@H]1C(=O)NCCC1CCNCC1)C(=O)O | –
